This note sets out measurements from patent publication US12059422B2 (MEI Pharma, Inc., priority 2011, dated 2024).

The target in one experiment is T1, PI3Kγ (Mus musculus, UniProt Q9JHG7).
T1 construct: endogenous in cells; host or cells: RAW 264.7 (ATCC #TIB-71)
Description: ELISA assay for PI3Kγ: in-cell ELISA, phosphorylation of AKT (Ser473) in RAW 264.7 cells. The conditions noted are these: cellular, pAKT (Ser473), C5a stimulation, read-out: IC50 p110γ. The experiment is classed as cell-based. The method, then: PI3K gamma (PI3Kγ) activity was determined by measuring the phosphorylation of AKT (Ser473) using an in-cell ELISA assay. RAW 264.7 (mouse macrophage) cells were obtained from ATCC (ATCC #TIB-71). Growth medium was DMEM (CellGro #CV-10-013-CV) supplemented with 10% fetal bovine serum, 100 IU/mL penicillin, 100 μg/mL streptomycin, and 1×MEM non-essential amino acids. Phosphate buffered saline (PBS) contained 2.7 M NaCl, 54 mM KCl, 86 mM […] (dibasic, anhydrous), and 28 mM […] (monobasic, anhydrous) at pH 7.2. Stimulation mixture (10×) was 500 ng/mL recombinant human complement component C5a (R&D systems #2037-C5-025) diluted in serum-free DMEM medium (CellGro #CV-10-013-CV). Compounds for testing were dissolved and serially diluted in 100% DMSO (total of 10 concentrations), then diluted in serum-free DMEM to 2× final assay concentration. Fixative solution (2×) was 8% formaldehyde (Amresco #M134) diluted in PBS. Permeabilization solution was PBS supplemented with 0.10% Triton X-100. Blocking buffer was obtained from LiCor (LiCor #927-40000). Wash buffer was PBS supplemented with 0.1% Tween-20. Primary antibody solution was rabbit anti-pAKT^S473 monoclonal antibody (Cell Signaling #4060) and mouse anti-total S6 (Santa Cruz #74459) diluted 1:500 and 1:2000, respectively, in the blocking buffer. Secondary antibody solution was IRDye 800CW-conjugated goat anti-rabbit IgG (LiCor #926-32211) and IRDye 680LT-conjugated goat anti-mouse IgG (LiCor #926-68020) diluted 1:1000 and 1:2000, respectively, in the blocking buffer.
RAW 264.7 cells were subcultured in growth medium and seeded into flat, clear bottom, 96-well plates (Corning #3904) at 70000 cells/well, then incubated overnight in a 37° C., 5% CO2 incubator. Growth medium in plates was replaced with 100 μL/well serum-free DMEM and incubated overnight in a 37° C., 5% CO2 incubator. Fresh serum-free DMEM (50 μL/well) was added to plates. Compound treatment was performed by adding 50 μL/well of 2× compound mixture to plates and incubating for 2 hrs at 37° C., 5% CO2, after which 11 μL/well of 10× stimulation mixture was added and plates were incubated for 3 min at 37° C., 5% CO2. Fixation was performed by adding 110 μL/well of 2× fixative solution to plates and incubating for 20 min at room temperature. Permeabilization was performed by replacing fixation solution with 150 μL/well permeabilization solution and incubating for 10 min at room temperature. Permeabilization was repeated (for a total of 2 times). Permeabilization solution was replaced with 100 μL/well blocking buffer and plates were incubated for 1 hr at room temperature, after which 100 μL/well of primary antibody solution was added and plates were incubated overnight at 4° C. Plates were washed with wash buffer, after which 100 μL/well of secondary antibody solution was added to the plates and incubated in the dark for 1 hr at room temperature. Plates were washed with wash buffer, followed by awash with PBS. After completely removing PBS, plates were scanned on the Licor Odyssey Imager. Images were quantified using Licor Odyssey application software. IC50 values were determined by curve fitting using a Collaborative Drug Discovery database (www.collaborativedrug.com).
In general terms: ELISA stands for enzyme-linked immunosorbent assay.

The next experiment addresses T2, PI3K alpha (Homo sapiens, UniProt P42336).
T2 construct: purchased Invitrogen Corp., Carlsbad, CA, USA
The experiment is described as follows: Luciferase-based luminescence assay (KinaseGlo), PI3K alpha enzymatic activity. The experiment is classed as biochemical. The conditions noted are these: inhibition of enzymatic activity, 25 μM ATP, read-out: IC50 p110α. The method, boiled down: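 KinaseGlo luminescence measured ATP remaining after PIP2 (50 μM) phosphorylation with 25 μM ATP in HEPES pH 7.5 buffer with CHAPS and DTT. Final enzyme was 1.65 nM alpha (1 h reaction) or 6.86 nM delta (2 h reaction). IC50 was curve-fitted from 10 concentrations.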
On the technique in general: Kinase-Glo reads ATP consumption through a luciferase reaction.

T2 sequence (P42336 whole entry, species assumed): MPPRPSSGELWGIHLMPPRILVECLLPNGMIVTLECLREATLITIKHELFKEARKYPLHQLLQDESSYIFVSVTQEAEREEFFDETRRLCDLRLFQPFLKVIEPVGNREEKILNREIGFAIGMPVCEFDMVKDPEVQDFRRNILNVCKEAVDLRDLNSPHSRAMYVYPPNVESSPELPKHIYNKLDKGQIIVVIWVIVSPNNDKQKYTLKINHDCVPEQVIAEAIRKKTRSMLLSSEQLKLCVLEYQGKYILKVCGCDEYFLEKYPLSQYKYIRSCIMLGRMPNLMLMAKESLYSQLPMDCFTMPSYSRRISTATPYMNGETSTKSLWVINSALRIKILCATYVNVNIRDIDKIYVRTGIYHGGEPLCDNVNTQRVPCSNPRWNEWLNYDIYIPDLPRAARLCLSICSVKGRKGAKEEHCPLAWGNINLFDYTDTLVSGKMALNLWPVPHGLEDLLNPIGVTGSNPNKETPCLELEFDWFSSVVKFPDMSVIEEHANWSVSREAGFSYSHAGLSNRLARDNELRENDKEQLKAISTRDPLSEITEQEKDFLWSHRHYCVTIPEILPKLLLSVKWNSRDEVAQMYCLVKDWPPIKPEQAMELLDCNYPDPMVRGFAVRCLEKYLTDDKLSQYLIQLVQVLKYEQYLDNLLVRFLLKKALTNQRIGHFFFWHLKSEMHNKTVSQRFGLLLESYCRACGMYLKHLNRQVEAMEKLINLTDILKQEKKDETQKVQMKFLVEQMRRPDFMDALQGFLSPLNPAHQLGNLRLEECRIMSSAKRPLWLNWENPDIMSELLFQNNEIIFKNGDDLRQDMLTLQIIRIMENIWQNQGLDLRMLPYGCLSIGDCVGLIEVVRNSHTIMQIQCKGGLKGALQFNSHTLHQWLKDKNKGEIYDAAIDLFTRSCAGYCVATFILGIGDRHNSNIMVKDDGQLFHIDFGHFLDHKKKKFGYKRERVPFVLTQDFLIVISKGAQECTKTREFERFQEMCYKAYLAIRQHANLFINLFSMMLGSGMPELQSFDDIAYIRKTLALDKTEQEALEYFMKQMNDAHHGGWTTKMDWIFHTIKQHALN
T2 sequence (P27986 whole entry partner, species assumed): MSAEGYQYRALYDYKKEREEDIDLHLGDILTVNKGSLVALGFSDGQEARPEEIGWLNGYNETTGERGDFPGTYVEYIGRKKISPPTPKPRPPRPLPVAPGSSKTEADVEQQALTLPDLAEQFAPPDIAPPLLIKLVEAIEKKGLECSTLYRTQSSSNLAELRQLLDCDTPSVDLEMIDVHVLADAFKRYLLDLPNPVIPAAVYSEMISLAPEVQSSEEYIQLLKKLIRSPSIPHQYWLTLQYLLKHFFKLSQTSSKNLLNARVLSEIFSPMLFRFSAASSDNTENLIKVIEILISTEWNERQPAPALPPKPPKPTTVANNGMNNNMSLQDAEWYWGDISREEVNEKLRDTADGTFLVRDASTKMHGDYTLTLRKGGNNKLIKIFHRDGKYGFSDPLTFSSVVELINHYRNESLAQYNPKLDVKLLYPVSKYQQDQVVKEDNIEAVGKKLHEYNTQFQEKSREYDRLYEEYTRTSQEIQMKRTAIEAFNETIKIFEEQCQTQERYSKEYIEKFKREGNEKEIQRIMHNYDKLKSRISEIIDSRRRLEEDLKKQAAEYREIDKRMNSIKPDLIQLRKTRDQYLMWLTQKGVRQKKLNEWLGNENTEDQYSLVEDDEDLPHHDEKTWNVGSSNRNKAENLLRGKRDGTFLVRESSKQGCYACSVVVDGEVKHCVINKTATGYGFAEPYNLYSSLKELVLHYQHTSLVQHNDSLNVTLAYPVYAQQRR
T1 sequence (Q9JHG7 whole entry): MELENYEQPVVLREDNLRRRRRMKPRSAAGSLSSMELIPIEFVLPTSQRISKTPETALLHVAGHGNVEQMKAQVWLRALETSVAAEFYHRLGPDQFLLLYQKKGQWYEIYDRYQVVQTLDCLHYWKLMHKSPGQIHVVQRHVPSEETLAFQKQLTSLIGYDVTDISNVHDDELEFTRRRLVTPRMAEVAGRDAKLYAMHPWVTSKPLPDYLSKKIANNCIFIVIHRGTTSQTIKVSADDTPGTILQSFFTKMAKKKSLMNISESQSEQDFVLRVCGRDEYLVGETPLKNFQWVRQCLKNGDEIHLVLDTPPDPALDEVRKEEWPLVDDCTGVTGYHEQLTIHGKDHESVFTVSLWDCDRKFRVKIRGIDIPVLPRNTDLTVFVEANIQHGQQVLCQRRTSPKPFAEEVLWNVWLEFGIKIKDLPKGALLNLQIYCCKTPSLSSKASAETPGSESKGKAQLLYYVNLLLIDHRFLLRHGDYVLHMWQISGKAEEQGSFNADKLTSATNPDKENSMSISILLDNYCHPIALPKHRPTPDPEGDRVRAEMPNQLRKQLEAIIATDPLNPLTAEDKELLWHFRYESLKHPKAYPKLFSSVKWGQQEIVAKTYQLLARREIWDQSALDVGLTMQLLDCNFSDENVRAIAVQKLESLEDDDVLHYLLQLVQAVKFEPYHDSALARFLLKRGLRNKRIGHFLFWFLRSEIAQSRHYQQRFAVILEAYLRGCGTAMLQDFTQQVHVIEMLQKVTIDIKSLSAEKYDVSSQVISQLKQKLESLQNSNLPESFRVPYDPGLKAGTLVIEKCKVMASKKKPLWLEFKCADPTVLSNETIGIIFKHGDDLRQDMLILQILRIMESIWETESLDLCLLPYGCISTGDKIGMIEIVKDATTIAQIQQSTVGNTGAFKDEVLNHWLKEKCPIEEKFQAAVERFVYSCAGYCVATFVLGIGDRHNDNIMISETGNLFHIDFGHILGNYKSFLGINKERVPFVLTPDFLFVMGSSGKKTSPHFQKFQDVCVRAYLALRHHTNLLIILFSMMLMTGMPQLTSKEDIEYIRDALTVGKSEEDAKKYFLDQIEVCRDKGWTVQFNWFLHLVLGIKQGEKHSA

The IC50 is the concentration that gives 50% inhibition. `CN(C)CCCc1ccccc1CC(C)(C)Nc1nc(N2CCOCC2)nc(-n2c(C(F)F)nc3ccccc32)n1` [Compound A76, 4-(2-(difluoromethyl)-1H-benzo[d]imidazol-1-yl)-N-(1-(2-(3-(dimethylamino)propyl)phenyl)-2-methylpropan-2-yl)-6-morpholino-1,3,5-triazin-2-amine]: the 50% inhibitory concentration (IC50) at PI3Kγ and at PI3K alpha was > 500 nM throughout.
